Measured values: patent US20260137819A1 (Radionetics Oncology, Inc., priority 2022, published 2026)
Starred links: 1 amine or outer side, 2 acyl side, 3 side chain; linkers in the order of their positions; H or OH if unused. Non-standard residues stand in square brackets, D forms with d. Residues, ends and D or L forms follow the SMILES beside them. Groups on a side chain read outwards from the residue. *: point of attachment. X1 = COc1cc2c(cc1-c1cccc(N*)c1)-c1c(c(C(=O)N3CCOCC3(C)C)nn1-c1cc(Cl)cc(Cl)c1)CO2; DOTA = O=C(O)CN1CCN(CC(=O)O)CCN(CC(=O)*)CCN(CC(=O)O)CC1; Suc = O=C(CCC(=O)[*:2])[*:1]

Molecular target: T1, human follicle-stimulating hormone receptor (FSHR) (Homo sapiens, UniProt P23945)
T1 construct: host or cells: CHO-K1
T1 sequence (P23945 18-695): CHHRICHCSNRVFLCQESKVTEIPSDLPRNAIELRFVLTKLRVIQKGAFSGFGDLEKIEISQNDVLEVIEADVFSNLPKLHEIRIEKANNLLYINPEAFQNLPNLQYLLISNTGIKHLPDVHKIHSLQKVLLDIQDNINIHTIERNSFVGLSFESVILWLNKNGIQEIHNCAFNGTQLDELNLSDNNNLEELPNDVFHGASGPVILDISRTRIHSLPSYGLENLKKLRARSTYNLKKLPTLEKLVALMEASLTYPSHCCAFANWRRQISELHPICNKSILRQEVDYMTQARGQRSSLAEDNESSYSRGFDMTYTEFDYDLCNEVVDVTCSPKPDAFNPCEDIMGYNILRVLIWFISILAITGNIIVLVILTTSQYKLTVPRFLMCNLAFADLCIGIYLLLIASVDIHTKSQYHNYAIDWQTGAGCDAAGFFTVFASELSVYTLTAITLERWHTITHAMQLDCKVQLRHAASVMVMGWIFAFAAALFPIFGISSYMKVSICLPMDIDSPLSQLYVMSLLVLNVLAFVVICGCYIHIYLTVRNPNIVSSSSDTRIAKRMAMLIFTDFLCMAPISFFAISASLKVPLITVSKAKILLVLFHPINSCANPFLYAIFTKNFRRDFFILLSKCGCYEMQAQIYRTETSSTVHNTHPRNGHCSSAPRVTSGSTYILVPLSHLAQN
Test: Measurement of agonist cAMP production by activation of human FSHR
Assay type: cell-based
Details: CHO-K1 human FSHR cells, 30 minutes at 37° C., HTRF cAMP kit; read-out: hFSHR Agonist cAMP EC50
Experimental: Measurement of agonist cAMP production by activation of human FSHR
Two days prior to the assay, 5,000 CHO—K1 human FSHR cells (Eurofins #95-0119C2) stably expressing the functional human follicle-stimulating hormone receptor were plated in a 96-well tissue culture-treated plate in growth media supplemented with the appropriate selection agent. […] The cells were incubated for 30 minutes at 37° C. (the final concentrations of the compound ranged from 0-10,000 nM). After the 30-minute incubation at 37° C., lysis buffer (HRTF CAMP kit, Cisbio #62AM5PEB)w as added directly to the cells and incubated for 30-minutes at room temperature. The diluted lysate was transferred and CAMP detection and visualization antibodies (HRTF CAMP kit, Cisbio #62AM5PEB) were added and incubated for 1-24 hours at room temperature. The time-resolved fluorescent signal was read with a Tecan M1000Pro (Tecan) multiplate reader. The intracellular cAMP concentrations were calculated by regression to a standard curve and were plotted vs. the concentration of the agonists. The concentration of test compound or FSH required to generate a half maximal response EC50 were calculated using standard curve-fitting methods. All data manipulations were performed using GraphPad Prism v9.3.1 (GraphPad, San Diego, CA).

SMILES	EC50 [nM]
COc1cc2c(cc1-c1cccc(NC(=O)NCCOCCOCCOCCOCCOCCOCCNC(=O)CN3CCN(CC(=O)O)CCN(CC(=O)O)CCN(CC(=O)O)CC3)c1)-c1c(c(C(=O)N(C)C(C)(C)C)nn1-c1cc(Cl)cc(Cl)c1)CO2 [Compound 1, 2,2′,2″-(10-(1-((3-(3-(tert-butyl(methyl)carbamoyl)-1-(3,5-dichlorophenyl)-7-methoxy-1,4-dihydrochromeno[4,3-c]pyrazol-8-yl)phenyl)amino)-1,24-dioxo-5,8,11,14,17,20-hexaoxa-2,23-diazapentacosan-25-yl)-1,4,7,10-tetraazacyclododecane-1,4,7-triyl)triacetic acid]	< 10
COc1cc2c(cc1-c1cncc(NC(=O)CCCNC(=O)[C@H](N)CCCCNC(=O)CN3CCN(CC(=O)O)CCN(CC(=O)O)CCN(CC(=O)O)CC3)c1)-c1c(c(C(=O)N3CCOCC3(C)C)nn1-c1cc(F)cc(F)c1)CO2 [Compound 58, (R)-2,2′,2″-(10-(2-((5-amino-6-((4-((5-(1-(3,5-difluorophenyl)-3-(3,3-dimethylmorpholine-4-carbonyl)-7-methoxy-1,4-dihydrochromeno[4,3-c]pyrazol-8-yl)pyridin-3-yl)amino)-4-oxobutyl)amino)-6-oxohexyl)amino)-2-oxoethyl)-1,4,7,10-tetraazacyclododecane-1,4,7-triyl)triacetic acid--2,2,2-trifluoroacetic acid (1/1)]	10 to 100
COc1cc2c(cc1-c1cccc(NC(=O)CON=C3CN(C(=O)CN4CCN(CC(=O)O)CCN(CC(=O)O)CCN(CC(=O)O)CC4)C3)c1)-c1c(c(C(=O)N3CCOCC3(C)C)nn1-c1cc(Cl)cc(Cl)c1)CO2 [Compound 44, 2,2′,2″-(10-(2-(3-((2-((3-(1-(3,5-dichlorophenyl)-3-(3,3-dimethylmorpholine-4carbonyl)-7-methoxy-1,4-dihydrochromeno|4,3-c|pyrazol-8-yl)phenyl)amino)-2-oxoethoxy)imino)azetidin-1-yl)-2-oxoethyl)-1,4,7,10-tetraazacyclododecane-1,4,7-triyl)triacetic acid]	< 10
COc1cc2c(cc1-c1cncc(NC(=O)CCNC(=O)[C@@H](CC(=O)O)NC(=O)[C@@H](CC(=O)O)NC(=O)CC[C@@H](NC(=O)CN3CCN(CC(=O)O)CCN(CC(=O)O)CCN(CC(=O)O)CC3)C(=O)O)c1)-c1c(c(C(=O)N3CCOCC3(C)C)nn1-c1cc(Cl)cc(Cl)c1)CO2 [Compound 93]	10 to 100
COc1cc2c(cc1-c1cccc(NC(=O)CCOCCOCCOCCN(CCOCCOCCOCCNC(=O)CN3CCN(CC(=O)O)CCN(CC(=O)O)CCN(CC(=O)O)CC3)CCOCCOCCOCCNC(=O)CN3CCN(CC(=O)O)CCN(CC(=O)O)CCN(CC(=O)O)CC3)c1)-c1c(c(C(=O)N3CCOCC3(C)C)nn1-c1cc(Cl)cc(Cl)c1)CO2 [Compound 13]	10 to 100
COc1cc2c(cc1-c1ccc(NC(=O)NCCOCCOCCOCCOCCOCCOCCNC(=O)CN3CCN(CC(=O)O)CCN(CC(=O)O)CCN(CC(=O)O)CC3)cc1)-c1c(c(C(=O)N(C)C(C)(C)C)nn1-c1cc(Cl)cc(Cl)c1)CO2 [Compound 5A, indium (III) 2,2′,2″-(10-(1-((4-(3-(tert-butyl(methyl)carbamoyl)-1-(3,5-dichlorophenyl)-7-methoxy-1,4-dihydrochromeno[4,3-c]pyrazol-8-yl)phenyl)amino)-1,24-dioxo-5,8,11,14,17,20-hexaoxa-2,23-diazapentacosan-25-yl)-1,4,7,10-tetraazacyclododecane-1,4,7-triyl)triacetate]	< 10
COc1cc2c(cc1-c1cncc(OCCOCCOCCOCCOCCNC(=O)[C@H](CS(=O)(=O)O)NC(=O)CN3CCN(CC(=O)O)CCN(CC(=O)O)CCN(CC(=O)O)CC3)c1)-c1c(c(C(=O)N3CCCN(C(=O)C4CCC4)CC3)nn1-c1cccs1)CO2 [Compound 76, (R)-2,2′,2″-(10-(20-((5-(3-(4-(cyclobutanecarbonyl)-1,4-diazepane-1carbonyl)-7-methoxy-1-(thiophen-2-yl)-1,4-dihydrochromeno[4,3-c]pyrazol-8-yl)pyridin-3-yl)oxy)-2,5-dioxo-4-(sulfomethyl)-9,12,15,18-tetraoxa-3,6-diazaicosyl)-1,4,7,10-tetraazacyclododecane-1,4,7-triyl)triacetic acid]	10 to 100
COc1cc2c(cc1-c1cncc(OCCOCCOCCOCCOCCNC(=O)[C@H](CS(=O)(=O)O)NC(=O)CN3CCN(CC(=O)O)CCN(CC(=O)O)CCN(CC(=O)O)CC3)c1)-c1c(c(C(=O)N3CCOCC3(C)C)nn1-c1cc(Cl)cc(Cl)c1)CO2 [Compound 68, (R)-2,2′,2″-(10-(20-((5-(1-(3,5-dichlorophenyl)-3-(3,3-dimethylmorpholine-4carbonyl)-7-methoxy-1,4-dihydrochromeno|4,3-c|pyrazol-8-yl)pyridin-3-yl)oxy)-2,5-dioxo-4-(sulfomethyl)-9,12,15,18-tetraoxa-3,6-diazaicosyl)-1,4,7,10-tetraazacyclododecane-1,4,7-triyl)triacetic acid]	< 10
COc1cc2c(cc1-c1cccc(NC(=O)C(CNC(=O)CCNC(=O)CN3CCN(CC(=O)O)CCN(CC(=O)O)CCN(CC(=O)O)CC3)CNC(=O)CCNC(=O)CN3CCN(CC(=O)O)CCN(CC(=O)O)CCN(CC(=O)O)CC3)c1)-c1c(c(C(=O)N3CCOCC3(C)C)nn1-c1cc(Cl)cc(Cl)c1)CO2 [Compound 35]	> 100
COc1cc2c(cc1-c1cccc(NC(=O)CCOCC(COCCC(=O)O)(COCCC(=O)O)NC(=O)CN3CCN(CC(=O)O)CCN(CC(=O)O)CCN(CC(=O)O)CC3)c1)-c1c(c(C(=O)N3CCOCC3(C)C)nn1-c1cc(Cl)cc(Cl)c1)CO2 [Compound 47, 2,2′,2″-(10-(2-((1,3-bis(2-carboxyethoxy)-2-((3-((3-(1-(3,5-dichlorophenyl)-3(3,3-dimethylmorpholine-4-carbonyl)-7-methoxy-1,4-dihydrochromeno|4,3-clpyrazol-8-yl)phenyl)amino)-3-oxopropoxy)methyl)propan-2-yl)amino)-2-oxoethyl)-1,4,7,10-tetraazacyclododecane-1,4,7-triyl)triacetic acid]	10 to 100
COc1cc2c(cc1-c1cccc(NC(=O)CCNC(=O)[C@H](CS(=O)(=O)O)NC(=O)CN3CCN(CC(=O)O)CCN(CC(=O)O)CCN(CC(=O)O)CC3)c1)-c1c(c(C(=O)N3CCOCC3(C)C)nn1-c1cc(Cl)cc(Cl)c1)CO2 [Compound 37, (R)-2,2′,2″-(10-(2-((1-((3-((3-(1-(3,5-dichlorophenyl)-3-(3,3dimethylmorpholine-4-carbonyl)-7-methoxy-1,4-dihydrochromeno|4,3-clpyrazol-8-yl)phenyl)amino)-3-oxopropyl)amino)-1-oxo-3-sulfopropan-2-yl)amino)-2-oxoethyl)-1,4,7,10-tetraazacyclododecane-1,4,7-triyl)triacetic acid]	10 to 100
COc1cc2c(cc1-c1cccc(NC(=O)CCC(=O)NCCCC[C@@H](NC(=O)[C@@H](CCC(=O)O)NC(=O)[C@@H](CCCNC(=N)N)NC(=O)[C@@H](CCC(=O)O)NC(=O)[C@@H](CCCNC(=N)N)NC(=O)[C@@H](C)NC(=O)CN3CCN(CC(=O)O)CCN(CC(=O)O)CCN(CC(=O)O)CC3)C(=O)N[C@H](C)C(N)=O)c1)-c1c(c(C(=O)N3CCOCC3(C)C)nn1-c1cc(Cl)cc(Cl)c1)CO2 [Compound 84, 2,2′,2″-(10-((4R,7R,10R,13R,16R,19R)-19-(((R)-1-amino-1-oxopropan-2yl)carbamoyl)-10,16-bis(2-carboxyethyl)-28-((3-(1-(3,5-dichlorophenyl)-3-(3,3-dimethylmorpholine-4-carbonyl)-7-methoxy-1,4-dihydrochromeno|4,3-clpyrazol-8-yl)phenyl)amino)-7,13-bis(3-guanidinopropyl)-4-methyl-2,5,8,11,14,17,25,28-octaoxo-3,6,9,12,15,18,24-heptaazaoctacosyl)-1,4,7,10-tetraazacyclododecane-1,4,7-triyl)triacetic acid] ({DOTA}-[dA][dR][dE][dR][dE][dK]([Suc-X1])[dA]-NH2)	10 to 100

Same assay, conditions: hFSHR Agonist cAMP EC50, CHO-K1 human FSHR cells, 30 minutes at 37° C., HTRF cAMP kit

SMILES	EC50 [nM]
COc1cc2c(cc1-c1cccc(NC(=O)CCC(=O)NCCCC[C@@H](NC(=O)[C@@H](C)NC(=O)[C@@H](CCC(=O)O)NC(=O)[C@@H](C)NC(=O)[C@@H](CCC(=O)O)NC(=O)[C@@H](C)NC(=O)CN3CCN(CC(=O)O)CCN(CC(=O)O)CCN(CC(=O)O)CC3)C(=O)N[C@H](C)C(N)=O)c1)-c1c(c(C(=O)N3CCOCC3(C)C)nn1-c1cc(Cl)cc(Cl)c1)CO2 [Compound 95]	10 to 100
